Results as given in patent publication US12378222B2, “NLRP3 inflammasome inhibitors” (Novartis AG, priority 2022, dated 2025).

Tests used:
Format in all cases: cell-based
[1] = test system: Pam3CSK4-stimulated, NF-κB-dependent TNF-α secretion; assay: TNF-α secretion assay (counter screen, THP-1 cells, HTRF); conditions: Homo sapiens, undifferentiated THP-1 cells, 3 h, at least 2 replicates
Experimental: Monocytic THP-1 cells were maintained according to providers' instructions in RPMI media as described above. Undifferentiated cells were plated at 50,000 cells per well in a 384-well flat-bottom cell culture plates (Greiner, #781986), and allowed to rest overnight. Experimental compounds were prepared and added as described above. TNF-α secretion was triggered by the addition of either 1 μg/mL LPS (Sigma, #L4391) or 100 ng/ml Pam3CSK4 (Invivogen, #tlrl-pms) depending on the experiment, and cells were incubated for 3 h. 10 μL supernatant was removed, and TNF-α levels were monitored using an HTRF assay (CisBio, #62TNFPEC) according to manufacturers' instructions. Viability was monitored as
IC50 values were calculated from the plot of percentage of inhibition versus the inhibitor concentration by a logistics fit according to: y=A2+(A1−A2)/(1+(x/IC50)^p) where y is the %-inhibition at the inhibitor concentration, x. A1 is the lowest inhibition value, i.e. 0%, and A2 the maximum inhibition value, i.e. 100%. The exponent, p, is the Hill coefficient. The curve fitting was conducted with an internally developed software suite. NLRP3-dependent IL-1β secretion was stimulated in PMA-differentiated THP-1 cells by the addition of nigericin, and cytokines were measured in the […] after 3 h. As discussed above, activation of the NLRP3 inflammasome requires both an NF-κB-dependent priming step and the addition of a NLRP3 activator. […] Data for IL-1β secretion was calculated as the arithmetic mean of at least 3 individual experiments, and TNF-α secretion data was consistent across at least 2 individual replicates.

[2] = target: T1, hERG (Homo sapiens, UniProt Q12809); assay: hERG channel test using the QPatch technology (automated patch clamp, CHO cells); parameters: host or cells: CHO cells; conditions: for inhibition at 4 min, 30 µM: human, CHO cells stably expressing hERG channels, pH 7.4, highest test concentration 30 μM
Experimental: CHO cells (AVIVA Biosciences Corp, San Diego, CA) stably expressing hERG channels were patched using a QPatch-HT automated patch clamp instrument (Sophion Bioscience A/S, Ballerup, Denmark) in single hole mode. The intracellular solution consisted of 120 mM KCl, 5 mM CaCl2, 2 mM MgCl2, 10 mM ethylene glycolbis (2-aminoethylether)-N,N,N′,N′-tetraacetic acid (EGTA), 10 mM (4-(2-hydroxyethyl)-1-piperazineethanesulfonic acid (HEPES), and 4 mM dipotassium adenosine-5′-triphosphate (ATP-K2), pH adjusted to 7.2 using KOH. The extracellular solution consisted of 145 mM NaCl, 4 mM KCl, 2 CaCl2, 1 mM MgCl2, 10 mM HEPES, and 0.3% dimethyl sulfoxide (DMSO), adjusted to pH 7.4 using NaOH. All measurements were performed at room temperature, and the blockers were pre-incubated for 4 min. The cells were voltage clamped at −90 mV and the hERG current was activated using a voltage step to +20 mV for 4 s. The hERG tail currents were measured by stepping down to −50 mV for 4 s before returning to −90 mV. This protocol was repeated every 20 s. The peak hERG current was automatically corrected by subtracting the leak current, which was estimated by measuring the mean current during a short depolarizing step to −50 mV from the resting membrane potential just prior to the long depolarizing step to • +20 mV at the beginning of the voltage protocol. Test articles were diluted using DMSO stock solutions and the extracellular solution. […] The effect of the test article on the hERG tail current was assessed and 1, 10 and 30 μM and a positive control (amitriptiline, 1, 3 and μM) was included on each plate.

[3] = target: T1, hERG; assay: hERG electrophysiological inhibition assay using the Qube technology (automated patch clamp, CHO cells); parameters: expressed in transfected cells; host or cells: CHO (T-REX) cells, tetracycline-induced; conditions: human, pH 7.4; 30 μM, CHO (T-REx) hERG cells, 35° C.
Experimental: (§1) Chinese hamster ovary (CHO) cell line, overexpressing the alpha-subunit of the hERG channel under the control of tetracycline-regulated promoter, was created using commercially available T-REX™ system (Invitrogen). CHO (T-REX™) hERG cells were maintained in Ham's F-12 nutrient medium (Life Tech) supplemented with 10% fetal bovine serum (HyClone), 1% penicillin-streptomycin, 10 μg/mL Blasticidin and 50 μg/mL Zeocin (all from Life Technologies, Thermo Fisher Scientific). For hERG expression induction, 1 μg/ml tetracycline (Sigma-Aldrich) was added to the growth media 24 hours before the current recording. To prepare the cell suspension for Qube experiments, cells were dislodged from culture flask by incubation in Detachin (Genlantis) at 37° C. for approximately 5 min, and resuspended in CHO serum free media (CHO-SFM II, Life Technologies) at a density of 2-3 million cells per mL.
(§2) Patch clamp experiments were performed on the Qube APC (automated patch clamp) platform (Sophion Bioscience A/S, Ballerup, Denmark) using the 384X 10-hole chip at 35° C. Intracellular KF-Ringer's solution consisted of (in mM) 120 KF, 20 KCl, […] ethylene glycol-bis(2-aminoethylether)-N,N,N′,N′-tetraacetic acid (EGTA) and 10 (4-(2-hydroxyethyl)-1-piperazineethanesulfonic acid (HEPES), pH at 7.2 with KOH. Extracellular solution consisted of (in mM) 145 NaCl, 4 KCl, 2 CaCl2, 1 MgCl2, 10 HEPES, 10 Glucose and 0.3% dimethyl sulfoxide (DMSO), pH at 7.4 with NaOH. The hERG current was elicited by applying the following voltage protocol: cells are held at −90 mV resting membrane potential for 100 msec, then clamped at −50 mV for 100 msec for leak estimation, depolarized to +20 mV for 4 sec (peak current measurement) and finally repolarized to −50 mV for 4 sec (tail current recording) before returning to the holding potential of −90 mV. The data are sampled at 10 KHz, with cutoff at 2 kHz, and filtered using the Bessel filter. The protocol was repeated every 15 s, 30 times before and 30 times after a compound application.
All compounds were prepared as 10 mM stock in 100% DMSO, then serially dilutes 1:3 down in Labcyte 384-well Echo Qualified LDV (low diamond volume) microplate. […]
(§3) The results were initially reviewed using the Qube specific Sophion Analyzer software (Sophion Bioscience), then analyzed using Data Analysis and Visualization in Discovery (DAVID) software package (Novartis AG). The compound effect on hERG current inhibition (normalized percentage of inhibition) was calculated as % Inh=(Icompound−Ivehicle)/Ivehicle*−100, where Icompound and Ivehicle are the averages of the last three leak-corrected tail hERG currents […] a compound application, respectively. […]

[4] = target: T2, alpha-subunit of the hERG channel (Homo sapiens, UniProt Q12809); assay: as above
T2 construct: expressed in transfected cells; host or cells: CHO (T-REX) cells, tetracycline-induced
Experimental: as §1, §2
All compounds were prepared as 10 mM stock in 100% DMSO, then serially dilutes 1:3 down in Labcyte 384-well Echo Qualified LDV (low […] volume) microplate. The Qube assay plate was prepared by transferring 0.15-0.3 μL of a compound from the serial dilution plate to the 384-well Greiner plate using Labcyte Echo 650 liquid handler (Beckman). Right before the experiment, the compounds in each well were further diluted in extracellular solution using Biomek i7 liquid handler (Beckman) to create the final concentrations of 0.37, 1.1, 3.3, 10, 15 and 30 μM (1:333 dilution to keep the final DMSO concentration in all samples ≤0.3%). Amitriptyline hydrochloride (positive control) and DMSO (0.3%, vehicle control) were included in each plate.
as §3

[5] = target: T3, NLRP3 inflammasome (Homo sapiens, UniProt Q96P20); assay: IL-1β secretion assay (nigericin-activated, PMA-differentiated THP-1 cells, HTRF); conditions: 15 μM nigericin, 3 h, arithmetic mean of at least 3 experiments
T3 construct: NLRP3-dependent IL-1β secretion was stimulated in PMA-differentiated THP-1 cells by the addition of nigericin; host or cells: THP-1 cells, PMA-differentiated
Experimental: Monocytic THP-1 cells (ATCC: TIB-202) were maintained according to providers' instructions in RPMI media (RPMI/Hepes+10% fetal bovine serum+Sodium Pyruvate+0.05 mM Beta-mercaptoethanol (1000× stock)+Pen-Strep). Cells were differentiated in bulk with 0.5 μM phorbol 12-myristate 13-acetate (PMA; Sigma #P8139) for 3 h, media was exchanged, and cells were plated at 50,000 cells per well in a 384-well flat-bottom cell culture plates (Greiner, #781986), and allowed to differentiate overnight. Compound in a 1:3.16 serial dilution series in DMSO was added 1:100 to the cells and incubated for 1 h. […] 10 μL supernatant was removed, and IL-1β levels were monitored using an HTRF (Homogeneous Time Resolved Fluorescence) assay (CisBio, #62IL1PEC) according to manufacturers' instructions.
IC50 values were calculated from the plot of percentage of inhibition versus the inhibitor concentration by a logistics fit according to: y=A2+(A1−A2)/(1+(x/IC50)^p) where y is the %-inhibition at the inhibitor concentration, x. […] NLRP3-dependent IL-1β secretion was stimulated in PMA-differentiated THP-1 cells by the addition of nigericin, and cytokines were measured in the serum after 3 h. […] Data for IL-1β secretion was calculated as the arithmetic mean of at least 3 individual experiments, and TNF-α secretion data was consistent across at least 2 individual replicates.

[6] = CHO cells stably expressing hERG, room temperature
[7] = CHO (T-REx) hERG cells, 35° C., tail current

T2 sequence (Q12809 whole entry): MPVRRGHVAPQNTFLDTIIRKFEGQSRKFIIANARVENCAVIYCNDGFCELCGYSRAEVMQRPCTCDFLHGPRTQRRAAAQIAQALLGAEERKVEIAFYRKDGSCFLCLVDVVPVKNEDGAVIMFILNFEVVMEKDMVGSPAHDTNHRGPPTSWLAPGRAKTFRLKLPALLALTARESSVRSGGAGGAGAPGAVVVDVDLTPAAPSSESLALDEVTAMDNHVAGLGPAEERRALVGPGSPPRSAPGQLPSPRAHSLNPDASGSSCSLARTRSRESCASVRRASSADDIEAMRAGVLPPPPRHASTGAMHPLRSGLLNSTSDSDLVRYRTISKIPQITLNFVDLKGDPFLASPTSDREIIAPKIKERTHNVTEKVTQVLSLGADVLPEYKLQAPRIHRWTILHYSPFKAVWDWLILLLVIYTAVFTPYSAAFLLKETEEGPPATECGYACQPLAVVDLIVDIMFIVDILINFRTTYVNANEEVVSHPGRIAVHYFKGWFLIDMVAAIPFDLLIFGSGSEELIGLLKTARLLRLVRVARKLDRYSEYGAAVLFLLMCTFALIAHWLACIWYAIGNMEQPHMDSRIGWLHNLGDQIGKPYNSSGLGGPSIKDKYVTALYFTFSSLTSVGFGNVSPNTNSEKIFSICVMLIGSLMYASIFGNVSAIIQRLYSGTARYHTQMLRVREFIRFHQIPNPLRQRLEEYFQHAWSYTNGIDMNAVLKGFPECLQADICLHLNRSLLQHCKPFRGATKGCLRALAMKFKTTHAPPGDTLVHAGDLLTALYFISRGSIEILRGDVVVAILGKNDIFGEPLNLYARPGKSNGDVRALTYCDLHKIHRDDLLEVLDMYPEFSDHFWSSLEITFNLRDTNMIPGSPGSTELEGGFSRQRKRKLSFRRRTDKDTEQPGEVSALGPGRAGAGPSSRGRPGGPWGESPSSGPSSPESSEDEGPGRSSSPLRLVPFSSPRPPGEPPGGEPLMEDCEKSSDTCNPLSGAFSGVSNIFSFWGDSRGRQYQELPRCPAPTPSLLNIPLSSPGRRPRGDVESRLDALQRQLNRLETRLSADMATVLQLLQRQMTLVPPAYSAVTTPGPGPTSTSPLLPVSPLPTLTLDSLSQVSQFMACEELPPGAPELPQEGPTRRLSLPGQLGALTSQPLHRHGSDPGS
T1 sequence (Q12809 whole entry): as above
T3 sequence (Q96P20 whole entry): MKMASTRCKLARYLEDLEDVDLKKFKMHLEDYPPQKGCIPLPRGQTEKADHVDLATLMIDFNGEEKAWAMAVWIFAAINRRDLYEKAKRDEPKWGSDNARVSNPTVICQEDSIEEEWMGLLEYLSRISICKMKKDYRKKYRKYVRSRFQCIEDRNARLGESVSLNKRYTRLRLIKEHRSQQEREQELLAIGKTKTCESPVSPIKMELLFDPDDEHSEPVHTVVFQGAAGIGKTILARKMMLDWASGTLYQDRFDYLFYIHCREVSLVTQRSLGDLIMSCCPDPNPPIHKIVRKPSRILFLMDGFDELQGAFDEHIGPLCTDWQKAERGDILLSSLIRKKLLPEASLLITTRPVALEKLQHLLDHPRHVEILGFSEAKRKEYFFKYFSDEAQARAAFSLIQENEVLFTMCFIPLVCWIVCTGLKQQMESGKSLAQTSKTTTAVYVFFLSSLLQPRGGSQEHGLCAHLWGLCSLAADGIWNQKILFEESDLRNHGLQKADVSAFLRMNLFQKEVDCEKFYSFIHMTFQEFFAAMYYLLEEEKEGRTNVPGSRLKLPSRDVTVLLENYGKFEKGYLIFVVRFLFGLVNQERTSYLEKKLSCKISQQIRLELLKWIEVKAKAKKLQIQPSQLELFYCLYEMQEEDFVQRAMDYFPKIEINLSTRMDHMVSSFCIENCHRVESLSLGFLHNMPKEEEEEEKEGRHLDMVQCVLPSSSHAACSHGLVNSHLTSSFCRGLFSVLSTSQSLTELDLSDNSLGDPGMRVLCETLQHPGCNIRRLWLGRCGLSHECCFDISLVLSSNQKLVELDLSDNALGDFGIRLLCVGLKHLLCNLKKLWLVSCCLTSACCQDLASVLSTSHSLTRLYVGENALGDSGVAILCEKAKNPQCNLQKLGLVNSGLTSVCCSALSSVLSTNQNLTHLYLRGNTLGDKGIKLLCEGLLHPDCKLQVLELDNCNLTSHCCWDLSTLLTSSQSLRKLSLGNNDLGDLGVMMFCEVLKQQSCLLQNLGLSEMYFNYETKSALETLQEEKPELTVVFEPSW

SMILES	IC50 [1]	inhibition at 4 min, 30 µM [2, 6]	IC50 ([2]; unit inferred)	inhibition at 7.5 min, 30 µM [3]	IC50 ([4]; unit inferred)	IC50 [5]	IC50 [4, 7]	IC50 ([2]; CHO cells stably expressing hERG, room temperature, tail current, tested at 1, 10 and 30 μM)	hERG QPatch IC50 compared with reference examples 1 and 2 ([2]; comparison in words)	hERG Qube IC50 compared with reference examples 1 and 2 ([4]; comparison in words)
Cc1cc(C(F)(F)F)cc(O)c1-c1cc(C(F)(F)F)c(N[C@@H]2CCCN(C)C2)nn1 [Reference ex. 2, (R)-3-methyl-2-(6-((1-methylpiperidin-3-yl)amino)-5-(trifluoromethyl)pyridazin-3-yl)-5-(trifluoromethyl)phenol]	> 100 µM	93.6%	3.9 µM	74.9%	5.62 µM	–	–	–	–	–
Cc1cc(-c2c(C)cc(C(F)(F)F)cc2O)nnc1N[C@@H]1CCCN(C)C1 [Reference ex. 1, (R)-3-Methyl-2-(5-methyl-6-((1-methylpiperidin-3-yl)amino)pyridazin-3-yl)-5-(trifluoromethyl)phenol]	> 33 µM	64.7%	13.1 µM	77.9%	4.71 µM	–	–	–	–	–
Cc1cc(C(F)(F)F)cc(O)c1-c1nnc(N[C@@H]2CCCN(C)C2)c2c1COC2 [Reference ex. 3, 3-methyl-2-(4-(((R)-1-methylpiperidin-3-yl)amino)-5,7-dihydrofuro[3,4-d]pyridazin-1-yl)-5-(trifluoromethyl)phenol]	> 100 µM	–	–	49.8%	–	0.0037 µM	> 30 µM	–	–	–
Cc1cc(C(F)(F)F)cc(O)c1-c1cc(CO)c(N[C@@H]2CCCN(C)C2)nn1 [Example 1, (R)-2-(5-(hydroxymethyl)-6-((1-methylpiperidin-3-yl)amino)pyridazin-3-yl)-3-methyl-5-(trifluoromethyl)phenol]	> 100 µM	24.3%	–	40.9%	–	0.00072 µM	> 30 µM	> 30 µM	considerably increased	considerably increased
